Laboratory results as given in patent US8399381B2, “Condensed heterocyclic sulfonyl urea compound, a herbicide containing the same, and a method for weed control using the same” (Sumitomo Chemical Company, Limited, priority 2002, dated 2013).

Tests used:
[1] = system: sulfonylurea herbicide-sensitive Scirpus juncoides var. ohwianus; assay: Paddy pot weeding test, flooded, two-leaf stage (Test Example 1); type: in vivo; conditions: 1 g/are, three weeks after treatment, sensitive biotype, Kyoto Pref.
From the text: (§1) A 5 cm×5 cm Jiffy Pot™ was charged with paddy soil, then water was introduced into each pot, seeds of sulfonylurea herbicide-sensitive Scirpus juncoides var. ohwianus, sulfonylurea herbicide-sensitive Lindernia procumbens (Krock.) Philcox, sulfonylurea herbicide-sensitive Lindernia dubia subsp. major Pennell, sulfonylurea herbicide-resistant Scirpus juncoides var. ohwianus, sulfonylurea herbicide-resistant Lindernia procumbens (Krock.) Philcox and sulfonylurea herbicide-resistant Lindernia dubia subsp. major Pennell were sowed therein and cultivated for a prescribed period under flooding conditions. When the plants reached the two-leave stage, the prescribed number of Jiffy Pots where the plants had been grown were transferred to a 150-cm^2 rectangular plastic pot, and water was introduced to a height of 3 cm, and a chemical diluent containing a compound was applied into the pot in an amount of 1 g/are. The chemical diluent was prepared by dissolving 1.5 g compound in 2 L of N,N-dimethylformamide (DMF) containing, 2% (W/V) surfactant Tween™ 20 and then diluting it with water to adjust the total volume to 10 L.

[2] = system: sulfonylurea herbicide-sensitive Lindernia procumbens (Krock.) Philcox; assay: as above; type: in vivo; conditions: 1 g/are, three weeks after treatment, sensitive biotype, Kyoto Pref.
From the text: as §1

[3] = system: sulfonylurea herbicide-resistant Lindernia dubia subsp. major Pennell; assay: as above; type: in vivo; conditions: 1 g/are, three weeks after treatment, resistant biotype, Kawanishi Town, Yamagata Pref.
From the text: as §1

[4] = system: sulfonylurea herbicide-resistant Lindernia procumbens (Krock.) Philcox; assay: as above; type: in vivo; conditions: 1 g/are, three weeks after treatment, resistant biotype, Tajiri Town, Miyagi Pref.
From the text: as §1

[5] = system: sulfonylurea herbicide-resistant Scirpus juncoides var. ohwianus; assay: as above; type: in vivo; conditions: 1 g/are, three weeks after treatment, resistant biotype, Iwamisawa City, Hokkaido
From the text: as §1

[6] = system: sulfonylurea herbicide-sensitive Lindernia dubia subsp. major Pennell; assay: as above; type: in vivo; conditions: 1 g/are, three weeks after treatment, sensitive biotype, Makabe Town, Ibaraki Pref.
From the text: as §1

COc1cc(OC)nc(S(=O)(=O)NC(=O)Nc2c(Cl)nc3ccc(SC)nn23)n1 [Compound No. 26]
melting point: 163 to 165 °C
S Scirpus juncoides var. ohwianus (effect index) [1]: 5 (excellent 81 to 100)
S Lindernia procumbens (Krock.) Philcox (effect index) [2]: 5 (excellent 81 to 100)
R Lindernia dubia subsp. major Pennell (effect index) [3]: 4 (high 61 to 80)
R Lindernia procumbens (Krock.) Philcox (effect index) [4]: 3 (moderate 41 to 60)
R Scirpus juncoides var. ohwianus (effect index) [5]: 5 (excellent 81 to 100)
S Lindernia dubia subsp. major Pennell (effect index) [6]: 5 (excellent 81 to 100)

COc1cc(OC)nc(S(=O)(=O)NC(=O)Nc2c(S(C)(=O)=O)nn3ccsc23)n1 [Compound No. 35]
melting point: 190 to 201 °C
S Scirpus juncoides var. ohwianus (effect index) [1]: 5 (excellent 81 to 100)
S Lindernia procumbens (Krock.) Philcox (effect index) [2]: 5 (excellent 81 to 100)
R Lindernia dubia subsp. major Pennell (effect index) [3]: 5 (excellent 81 to 100)
R Lindernia procumbens (Krock.) Philcox (effect index) [4]: 3 (moderate 41 to 60)
R Scirpus juncoides var. ohwianus (effect index) [5]: 5 (excellent 81 to 100)
S Lindernia dubia subsp. major Pennell (effect index) [6]: 5 (excellent 81 to 100)

CCc1ccc2nc(Cl)c(NC(=O)NS(=O)(=O)c3nc(OC)cc(OC)n3)n2n1 [Compound No. 37]
melting point: 162 to 166 °C
S Scirpus juncoides var. ohwianus (effect index) [1]: 5 (excellent 81 to 100)
S Lindernia procumbens (Krock.) Philcox (effect index) [2]: 5 (excellent 81 to 100)
R Lindernia dubia subsp. major Pennell (effect index) [3]: 5 (excellent 81 to 100)
R Lindernia procumbens (Krock.) Philcox (effect index) [4]: 5 (excellent 81 to 100)
R Scirpus juncoides var. ohwianus (effect index) [5]: 5 (excellent 81 to 100)
S Lindernia dubia subsp. major Pennell (effect index) [6]: 5 (excellent 81 to 100)
